# Key:
# Assay in all cases: MIC, microdilution method (9.1)
# [1] = tested on: S. aureus ATCC 106414 (VISA); type: cell-based, Staphylococcus aureus; settings: Staphylococcus aureus, read after 18 h, read-out: MIC
# Description: (§1) The microdilution method recommended by the Clinical and Laboratory Standard Institute [M07-A8, Vol. 29, No. 2] was used. The activity of indolic compounds was tested against 29 bacterial strains belonging to 17 different species and 12 different genera (Staphylococcus, Streptococcus, Enterococcus, Listeria, Bacillus, Haemophilus, Escherichia, Klebsiella, Enterobacter, Serratia, Pseudomonas, and Acinetobacter). Bacterial inocula were prepared in Mueller Hinton broth (MH2, bioMérieux, Marcy L'Etoile, France), supplemented with 10% sheep blood for fastidious species (i.e., Streptococcus pneumoniae and Haemophilus influenzae). They were dispensed in 96 well microtiter plates (5×10^5 CFU/ml of final inoculum). Indolic compounds were added to the wells as to obtain two-fold serial concentrations (0.50-128 mg/L of final concentrations). Plates were incubated at 37° C. in ambient air, or at 37° C. in 5% CO2 enriched atmosphere for fastidious species. […] Drug-free cultures served as growth controls. Cultures receiving gentamicin, ciprofloxacin or cefotaxime served as positive controls.
# S. aureus ATCC 25923 = type: cell-based, Staphylococcus aureus; settings: Staphylococcus aureus, ATCC25923, read after 18 h, read-out: MIC
# Description: as §1
# S. aureus ATCC 29213 = type: cell-based, Staphylococcus aureus; settings: Staphylococcus aureus, ATCC29213, read after 18 h, read-out: MIC
# Description: as §1
# [2] = tested on: S. aureus ATCC 33592 (MRSA); type: cell-based, Staphylococcus aureus; settings: Staphylococcus aureus, read after 18 h, read-out: MIC
# Description: as §1
# S. aureus ATCC 6538 = type: cell-based, Staphylococcus aureus; settings: Staphylococcus aureus, ATCC6538, read after 18 h, read-out: MIC
# Description: as §1
# S. aureus ATCC 9144 = type: cell-based, Staphylococcus aureus; settings: Staphylococcus aureus, ATCC9144, read after 18 h, read-out: MIC
# Description: as §1
# S. aureus CIP 103428 = type: cell-based, Staphylococcus aureus; settings: Staphylococcus aureus, CIP103428, read after 18 h, read-out: MIC
# Description: as §1
# [3] = tested on: S. aureus CIP 65.25 (MRSA); type: cell-based, Staphylococcus aureus; settings: Staphylococcus aureus, read after 18 h, read-out: MIC
# Description: as §1
# S. aureus CIP 65.6 = type: cell-based, Staphylococcus aureus; settings: Staphylococcus aureus, CIP65, read after 18 h, read-out: MIC
# Description: as §1
# [4] = tested on: S. epidermidis ATCC 12228; type: cell-based, Staphylococcus epidermidis; settings: Staphylococcus epidermidis, ATCC12228, read after 18 h, read-out: MIC
# Description: as §1
# [5] = tested on: S. epidermidis CIP 103627; type: cell-based, Staphylococcus epidermidis; settings: Staphylococcus epidermidis, CIP103627, read after 18 h, read-out: MIC
# Description: as §1
# S. epidermidis CIP 81.55 = type: cell-based, Staphylococcus epidermidis; settings: Staphylococcus epidermidis, CIP81, read after 18 h, read-out: MIC
# Description: as §1
# S. pneumoniae ATCC 6303 = type: cell-based, Streptococcus pneumoniae; settings: Streptococcus pneumoniae, ATCC6303, 10% sheep blood, 5% CO2, 18 h, read-out: MIC
# Description: as §1
# [6] = tested on: S. agalactiae (group B) ATCC 12400; type: cell-based, Streptococcus agalactiae; settings: Streptococcus agalactiae, ATCC12400, 18 h, read-out: MIC
# Description: as §1
# [7] = tested on: S. pyogenes (group A) CIP 104226; type: cell-based, Streptococcus pyogenes; settings: Streptococcus pyogenes, CIP104226, 18 h, read-out: MIC
# Description: as §1
# S. mitis CIP 103335 = type: cell-based, Streptococcus mitis; settings: Streptococcus mitis, CIP103335, 18 h, read-out: MIC
# Description: as §1
# E. faecium CIP 54.32 = type: cell-based, Enterococcus faecium; settings: Enterococcus faecium, CIP54, 18 h, read-out: MIC
# Description: as §1
# E. faecalis ATCC 29212 = type: cell-based, Enterococcus faecalis; settings: Enterococcus faecalis, ATCC29212, 18 h, read-out: MIC
# Description: as §1
# [8] = tested on: Acinetobacter baumanii ATCC 19606; type: cell-based; settings: Acinetobacter baumannii, ATCC19606, 18 h, read-out: MIC
# Description: as §1
# [9] = tested on: Bacillus subtilis CIP 5262; type: cell-based; settings: CIP5262, 18 h, read-out: MIC
# Description: as §1
# [10] = tested on: Enterobacter cloacae ATCC13047; type: cell-based; settings: 18 h
# Description: as §1
# [11] = tested on: Escherichia coli ATCC 25922; type: cell-based; settings: ATCC25922, 18 h
# Description: as §1
# [12] = tested on: Haemophilus influenzae ATCC 49766; type: cell-based; settings: ATCC49766; Haemophilus influenzae ATCC 49766; 10% sheep blood, 5% CO2; 18 h; read-out: MIC
# Description: as §1
# [13] = tested on: Klebsiella pneumoniae API ATCC 35657; type: cell-based; settings: ATCC35657, 18 h, read-out: MIC
# Description: as §1
# [14] = tested on: Listeria innocua CIP 80.11; type: cell-based; settings: CIP80, 18 h, read-out: MIC
# Description: as §1
# [15] = tested on: Pseudomonas aeruginosa CIP 5933; type: cell-based; settings: CIP5933, 18 h, read-out: MIC
# Description: as §1
# S. pneumoniae ATCC 49619 = type: cell-based; settings: Streptococcus pneumoniae, ATCC49619, 10% sheep blood, 5% CO2, 18 h
# Description: as §1
# [16] = tested on: Serratia marcescens CIP 103551; type: cell-based; settings: CIP103551, 18 h
# Description: as §1
MIC [1],MIC (S. aureus ATCC 25923),MIC (S. aureus ATCC 29213),MIC [2],MIC (S. aureus ATCC 6538),MIC (S. aureus ATCC 9144),MIC (S. aureus CIP 103428),MIC [3],MIC (S. aureus CIP 65.6),MIC [4],MIC [5],MIC (S. epidermidis CIP 81.55),MIC (S. pneumoniae ATCC 6303),MIC [6],MIC [7],MIC (S. mitis CIP 103335),MIC (E. faecium CIP 54.32),MIC (E. faecalis ATCC 29212),MIC [8],MIC [9],SMILES,other results
16 mg/L,16 mg/L,16 mg/L,16 mg/L,16 mg/L,16 mg/L,16 mg/L,16 mg/L,> 32 mg/L,16 mg/L,16 mg/L,16 mg/L,–,–,–,–,–,–,–,–,"CC(NC(=O)c1c[nH]c2ccc(F)cc12)c1c[nH]c2ccc(Br)cc12 (centres unmarked) [Compound 5, N-(1-(5-bromo-1H-indol-3-yl)ethyl)-5-fluoro-1H-indole-3-carboxamide]",–
32 mg/L,32 mg/L,32 mg/L,32 mg/L,32 mg/L,32 mg/L,32 mg/L,32 mg/L,> 32 mg/L,32 mg/L,32 mg/L,32 mg/L,128 mg/L,64 mg/L,64 mg/L,> 128 mg/L,> 128 mg/L,> 128 mg/L,> 32 mg/L,> 128 mg/L,"O=C(NC(C(=O)NCCO)c1c[nH]c2ccc(Br)cc12)c1c[nH]c2ccc(Br)cc12 (centres unmarked) [Compound 14, 5-Bromo-N-(1-(5-bromo-1H-indol-3-yl)-2-((2-hydroxyethyl)amino)-2-oxoethyl)-1H-indole-3-carboxamide]",MIC [10]: > 32 mg/L; MIC [11]: > 32 mg/L; MIC [12]: > 128 mg/L; MIC [13]: > 32 mg/L; MIC [14]: > 128 mg/L; MIC [15]: > 32 mg/L; MIC (S. pneumoniae ATCC 49619): 64 mg/L; MIC [16]: > 32 mg/L
32 mg/L,32 mg/L,16 mg/L,32 mg/L,16 mg/L,32 mg/L,16 mg/L,32 mg/L,32 mg/L,32 mg/L,32 mg/L,> 32 mg/L,128 mg/L,64 mg/L,128 mg/L,> 128 mg/L,> 128 mg/L,> 128 mg/L,> 32 mg/L,> 128 mg/L,"O=C(NC(C(=O)NCCCCO)c1c[nH]c2ccc(Br)cc12)c1c[nH]c2ccc(Br)cc12 (centres unmarked) [Compound 15, 5-Bromo-N-(1-(5-bromo-1H-indol-3-yl)-2-((4-hydroxybutyl)amino)-2-oxoethyl)-1H-indole-3-carboxamide]",MIC [10]: > 32 mg/L; MIC [11]: > 32 mg/L; MIC [12]: > 128 mg/L; MIC [13]: > 32 mg/L; MIC [14]: > 128 mg/L; MIC [15]: > 32 mg/L; MIC (S. pneumoniae ATCC 49619): 128 mg/L; MIC [16]: > 32 mg/L
